The values that follow come from PubChem BioAssay AID1553 (Sanford-Burnham Center for Chemical Genomics, 2009).

The assay deals with HeLa cells, 3H-mannose incorporation into glycoproteins. The assay can be described thus: increase in 3H-mannose incorporation into HeLa proteins, late-stage follow-up, orthogonal assay for PMI inhibitor project, HeLa cells (AID 1553).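 Note: 1 fold = DMSO treated HeLa control cells; higher fold signals phosphomannose isomerase inhibition routing mannose into glycosylation.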
Where [1] appears, read: fold increase, at 25 µM, stronger effect = higher value.

Molecules are shown by their SMILES. Activity calls are given as the source filed them.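 Rule for the calls: active = compounds graded as giving a low, moderate or strong rise in tritium labelling of cell protein versus solvent control; inactive = the rest.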

Regarding `Clc1ccc(N=c2ssnc2Cl)cc1`, the fold increase 3H incorporation is 0.2 (inactive) (at 100 µM) and 1.1 under setting [1].

`Clc1nss/c1=N\c1nncs1`: the fold increase 3H incorporation is 0.5 (inactive) (at 100 µM) and 0.9 under setting [1].

Turning to `CN(C)c1ccc(N=c2ssnc2Cl)cc1`, the fold increase 3H incorporation is, setting by setting: (at 100 µM) 1 (inactive); under setting [1], 0.8.

As to `O=C(NCc1ccccc1)c1cccc(-n2sc3ccccc3c2=O)c1`, the fold increase 3H incorporation is 1.2 (inactive) (at 100 µM) and 1.2 under setting [1].

Regarding `Nc1ccccc1N=c1ssnc1Cl`, the fold increase 3H incorporation is, setting by setting: (at 100 µM) 0.9 (inactive); under setting [1], 0.9.

Take `Cc1[nH]n(-c2ccccc2)c(=S)c1C=Nc1cccc([N+](=O)[O-])c1`: the fold increase 3H incorporation (at 100 µM) is 0.7 (inactive).

`O=c1c2ccccc2sn1-c1cccc(S(=O)(=O)Nc2ccc(Cl)cc2)c1`: the fold increase 3H incorporation by setting is: (at 100 µM) 0.7 (inactive); under setting [1], 0.4.

`Cc1ccc(C)c(-n2sc3cc(F)ccc3c2=O)c1`: the fold increase 3H incorporation runs as follows: (at 100 µM) 0.6; under setting [1], 1.4.

As for `O=c1c2ccccc2sn1-c1cc(S(=O)(=O)N2CCOCC2)ccc1N1CCCC1`, the fold increase 3H incorporation was 0.7 (inactive) (at 100 µM) and 0.7 under setting [1].

For the compound `O=c1c2cc(F)ccc2sn1-c1ccccc1`, the fold increase 3H incorporation was 1.6 (at 100 µM) and 2.3 under setting [1].

On to `CN(C)c1cccc(-n2sc3ccccc3c2=O)c1`, for which the fold increase 3H incorporation is, setting by setting: (at 100 µM) 1.1 (inactive); under setting [1], 1.3.

`COc1ccc(-c2nc(=S)[nH][nH]2)cc1OC`: the fold increase 3H incorporation (at 100 µM) was 0.8 (inactive).

Take `O=c1c2ccccc2sn1-c1ccc2ccccc2c1`: the fold increase 3H incorporation (at 100 µM) was 1.9 and the fold increase 3H incorporation under setting [1] amounted to 1.6.

With `Cc1ccc(N=c2ssnc2Cl)nc1`, the fold increase 3H incorporation runs as follows: (at 100 µM) 0; under setting [1], 1.2.

For the compound `COc1ccc(OC)c(N=c2ssnc2Cl)c1`, the fold increase 3H incorporation (at 100 µM) is 1.7 and the fold increase 3H incorporation under setting [1] turned out to be 2.5.

Turning to `CC(C)(C)c1ccc(N=c2ssnc2Cl)cc1`, the fold increase 3H incorporation is 1 (inactive) (at 100 µM) and 0.7 under setting [1].

In the case of `COc1cc(N=c2ssnc2Cl)cc(OC)c1OC`, the fold increase 3H incorporation runs as follows: (at 100 µM) 1.2 (inactive); under setting [1], 1.1.

`COc1cc(-c2nc(=S)[nH][nH]2)cc(OC)c1OC`: the fold increase 3H incorporation (at 100 µM) was 0.8 (inactive).

`Cc1ccc(C)c(-n2sc3ccccc3c2=O)c1`: the fold increase 3H incorporation (at 100 µM) was 1.5 and the fold increase 3H incorporation under setting [1] was 1.4.

As for `O=c1c2ccccc2sn1-c1ccc(Cl)c(S(=O)(=O)N2CCOCC2)c1`, the fold increase 3H incorporation reads like this: (at 100 µM) 1.2 (inactive); under setting [1], 1.

With `Cc1c(Cl)cccc1-n1sc2cc([N+](=O)[O-])cc(OCC(F)(F)F)c2c1=O`, the fold increase 3H incorporation (at 100 µM) was 1.1 (inactive) and the fold increase 3H incorporation under setting [1] worked out at 1.4.

Turning to `Cc1ccc(N=c2ssnc2Cl)c([N+](=O)[O-])c1`, the fold increase 3H incorporation runs as follows: (at 100 µM) 3.2; under setting [1], 1.5.

On to `CN(C)c1cccc(N=c2ssnc2Cl)c1`, for which the fold increase 3H incorporation is 0.2 (inactive) (at 100 µM) and 0.3 under setting [1].

As for `COc1cc([N+](=O)[O-])ccc1N=c1ssnc1Cl`, the fold increase 3H incorporation was 1.4 (at 100 µM) and 1.3 under setting [1].

Turning to `O=c1c2c([N+](=O)[O-])cc([N+](=O)[O-])cc2sn1-c1ccc(F)cc1`, the fold increase 3H incorporation (at 100 µM) was 0.8 (inactive) and the fold increase 3H incorporation under setting [1] turned out to be 0.9.

On to `COc1ccc2c(=O)n(C3CCCC3)sc2c1`, for which the fold increase 3H incorporation was 0 (inactive) (at 100 µM) and 0.9 under setting [1].

With `Oc1ccc(N=c2ssnc2Cl)cc1`, the fold increase 3H incorporation reads like this: (at 100 µM) 0.7 (inactive); under setting [1], 0.8.

Turning to `O=c1c2ccccc2sn1-c1cc(S(=O)(=O)N2CCOCC2)ccc1N1CCOCC1`, the fold increase 3H incorporation is, setting by setting: (at 100 µM) 0.4 (inactive); under setting [1], 0.8.

Turning to `S=c1nc(-c2ccccc2Br)[nH][nH]1`, the fold increase 3H incorporation (at 100 µM) is 0.9 (inactive).

For the compound `Cc1ccc(C)c(N2Cc3ccccc3C2=O)c1`, the fold increase 3H incorporation (at 100 µM) is 1.2 (inactive) and the fold increase 3H incorporation under setting [1] came to 1.1.

Turning to `O=C(O)c1ccccc1NS(=O)(=O)c1cccc(-n2sc3ccccc3c2=O)c1`, the fold increase 3H incorporation is 0 (inactive) (at 100 µM) and 0.2 under setting [1].

Turning to `O=c1c2ccccc2sn1-c1nccs1`, the fold increase 3H incorporation (at 100 µM) is 1 (inactive) and the fold increase 3H incorporation under setting [1] amounted to 0.9.

With `O=c1c2ccccc2sn1-c1cccc(I)c1`, the fold increase 3H incorporation reads like this: (at 100 µM) 0.7; under setting [1], 3.4.

In the case of `O=c1c2c([N+](=O)[O-])cc([N+](=O)[O-])cc2sn1-c1ccccc1F`, the fold increase 3H incorporation is 0.9 (inactive) (at 100 µM) and 0.9 under setting [1].

Regarding `N#Cc1ccc(N=c2ssnc2Cl)cc1`, the fold increase 3H incorporation was 1.1 (inactive) (at 100 µM) and 1 under setting [1].

Consider `Cc1ccc(N=c2ssnc2Cl)cc1`, for which the fold increase 3H incorporation by setting is: (at 100 µM) 1.6; under setting [1], 1.1.

Regarding `COC(=O)c1cccc(-n2sc3ccccc3c2=O)c1`, the fold increase 3H incorporation is 1.7 (at 100 µM) and 1.5 under setting [1].

`Cc1ccc(N=c2ssnc2Cl)cc1C`: the fold increase 3H incorporation is, setting by setting: (at 100 µM) 0.8 (inactive); under setting [1], 0.8.

As to `COc1ccc(N=c2ssnc2Cl)cc1OC`, the fold increase 3H incorporation is, setting by setting: (at 100 µM) 0.1 (inactive); under setting [1], 0.3.

On to `O=c1c2ccc(O)cc2sn1C1CCCC1`, for which the fold increase 3H incorporation reads like this: (at 100 µM) 0.8 (inactive); under setting [1], 1.1.

Take `O=C(O)CCn1cc(C=C2C(=O)NC(=S)NC2=O)c(-c2cccc(Br)c2)n1`: the fold increase 3H incorporation (at 100 µM) was 0.8 (inactive).

Turning to `Cc1ccc(C)c(-n2sc3ccc(F)cc3c2=O)c1`, the fold increase 3H incorporation (at 100 µM) is 1 and the fold increase 3H incorporation under setting [1] was determined as 2.9.

`Clc1nssc1=Nc1ccc(Br)cc1`: the fold increase 3H incorporation was 0.5 (at 100 µM) and 3.6 under setting [1].

`O=c1c2ccccc2sn1-c1cccc(C(F)(F)F)c1`: the fold increase 3H incorporation is 0.7 (at 100 µM) and 1.2 under setting [1].

With `O=c1c2c([N+](=O)[O-])cc([N+](=O)[O-])cc2sn1-c1ccc(F)c(Cl)c1`, the fold increase 3H incorporation by setting is: (at 100 µM) 0.7 (inactive); under setting [1], 0.9.

On to `Cc1cccc(-n2sc3ccccc3c2=O)c1`, for which the fold increase 3H incorporation was 2.3 (at 100 µM) and 2 under setting [1].

Turning to `Clc1nssc1=Nc1ccccc1`, the fold increase 3H incorporation is 1.9 (at 100 µM) and 1.2 under setting [1].

As to `Cc1ccc(N=c2ssnc2Cl)cc1[N+](=O)[O-]`, the fold increase 3H incorporation (at 100 µM) was 0.2 and the fold increase 3H incorporation under setting [1] was determined as 2.1.

Regarding `O=[N+]([O-])c1ccc(N=c2ssnc2Cl)c2ccccc12`, the fold increase 3H incorporation (at 100 µM) was 0.4 and the fold increase 3H incorporation under setting [1] amounted to 0.5.

Turning to `FC(F)(F)c1ccc(N=c2ssnc2Cl)cc1`, the fold increase 3H incorporation is, setting by setting: (at 100 µM) 0.3; under setting [1], 1.4.

`Clc1nss/c1=N\c1nc2ccccc2s1`: the fold increase 3H incorporation (at 100 µM) was 0.1 (inactive) and the fold increase 3H incorporation under setting [1] was determined as 0.7.

Regarding `CCSc1n[nH]c(=S)s1`, the fold increase 3H incorporation was 1 (inactive) (at 100 µM) and 1 under setting [1].

On to `Cc1cccc(-n2sc3cc(F)ccc3c2=O)c1C`, for which the fold increase 3H incorporation reads like this: (at 100 µM) 0.5; under setting [1], 2.1.

With `Clc1ccc(Nc2ccccc2N=c2ssnc2Cl)cc1`, the fold increase 3H incorporation reads like this: (at 100 µM) 0.4 (inactive); under setting [1], 0.3.
